Assays:
[1] = parameters: method as in PMID 24599122, PMID 16168446; details: cited from earlier work; for IC50 for DPPH: radical scavenging
alpha-amylase = test: in vitro alpha-amylase inhibition (AAI) assay, Ultra-Amylase EnzChek Assay Kit; assay type: biochemical
From the text: The AAI capacity of T. minuta flavonoids was estimated using an Ultra-Amylase®Enz-Chek Assay Kit in line with a formerly reported method.

[2] = parameters: method as in PMID 24599122, PMID 16168446; details: cited from earlier work
[3] = test system: PE (phenylephrine)-precontracted thoracic aortic rings; parameters: method as in PMID 23763258; details: PE-precontracted thoracic aortic rings in rats; cited from earlier work
[4] = no reference given; cited from earlier work

Row | Compound | IC50 (alpha-amylase) | further results
1 | O=C(C=Cc1ccc(O)c(O)c1)OCC1OC(Oc2c(O)cc3oc(-c4ccc(O)c(O)c4)c(O)c(=O)c3c2O)C(O)C(O)C1O [Compound 1, quercetagetin-6-O-(6-O-caffeoyl-β-D-glucopyranoside)] | 10.1 µM | DPPH scavenging [1]: 89.1%
2 | COc1c(-c2ccc(O)c(O)c2)oc2c(O)c(O)c(O[C@@H]3O[C@H](CO)[C@@H](O)[C@H](O)[C@H]3O)c(O)c2c1=O [Compound 7, tagenol B] | 10.8 µM | –
3 | COc1c(OC2OC(CO)C(O)C(O)C2O)cc2oc(-c3ccc(O)c(O)c3)c(O)c(=O)c2c1O [Compound 5, patuletin-7-O-β-D-glucopyranoside] | 8.1 µM | IC50 for DPPH [1]: 12.1 µg/mL
4 | COc1cc2oc(-c3ccc(O)c(O)c3)c(O)c(=O)c2c(O)c1O[C@@H]1O[C@H](CO)[C@@H](O)[C@H](O)[C@H]1O [Compound 6, quercetagetin-7-methoxy-6-O-β-D-glucopyranoside] | 9.7 µM | –
5 | CCCCCC(=O)OCC1OC(Oc2c(O)cc3oc(-c4ccc(O)c(O)c4)c(O)c(=O)c3c2O)C(O)C(O)C1O (stereo not shown) [Compound 4, minutaside A] | 9.2 µM | –
6 | O=c1c(O)c(-c2ccc(O)c(O)c2)oc2cc(O)c(OC3OC(CO)C(O)C(O)C3O)c(O)c12 [Compound 3, quercetagetin-6-O-β-D-glucopyranoside] | 8.9 µM | –
7 | COc1c(O)cc2oc(-c3ccc(O)c(O)c3)c(OC)c(=O)c2c1O [Compound 11, quercetin-3,6-dimethyl ether] | 21.7 µM | –
8 | COc1c(O)cc2oc(-c3ccc(O)c(O)c3)c(O)c(=O)c2c1O [Compound 8, patuletin] | 13.6 µM | –
9 | O=c1c(O)c(-c2ccc(O)c(O)c2)oc2cc(OC3OC(CO)C(O)C(O)C3O)c(O)c(O)c12 [Compound 2, quercetagetin-7-O-β-D-glucopyranoside] | 7.8 µM | %inhibition for superoxide anion [2]: 82.85%; vasorelaxation [3]: vasorelaxation potential; IC50 for DPPH [1]: 3.92 µg/mL
10 | COc1cc2oc(-c3ccc(O)c(O)c3)c(OC)c(=O)c2c(O)c1O[C@@H]1O[C@H](CO)[C@@H](O)[C@H](O)[C@H]1O [Compound 9, quercetagetin-3,7-dimethoxy-6-O-β-D-glucopyranoside] | 12.7 µM | –
11 | COc1ccc(-c2oc3c(O)c(O)c(OC)c(O)c3c(=O)c2OC)cc1O [Compound 12, tagenol A] | 14.9 µM | –
12 | COc1c(-c2ccc(O)c(O)c2)oc2cc(O)cc(O)c2c1=O [Compound 10, quercetin-3-methyl ether] | 26.9 µM | –
13 | C[C@H]1O[C@H](O[C@H]2[C@H](O)[C@@H](O)[C@@H](O[C@H]3[C@H](O)[C@@H](O)C(O)O[C@@H]3CO)O[C@@H]2CO)[C@H](O)[C@@H](O)[C@@H]1N[C@H]1C=C(CO)[C@@H](O)[C@H](O)[C@H]1O (stereo partly shown) [Acarbose] | – | oral dose absorbed into the bloodstream [4]: 2%; oral dose eliminated through fecal excretion [4]: approximately 51%

From publication PMC10298979, “Assessments of Alpha-Amylase Inhibitory Potential of Tagetes Flavonoids through In Vitro, Molecular Docking, and Molecular Dynamics Simulation Studies” (International Journal of Molecular Sciences, 2023)
